Columns and labels:
[1] = system: KMS11 (human myeloma cell line); test: Cell Proliferation Assay (CellTiter-Glo, 3 days); assay type: cell-based; details: KMS-11, 72 h, KMS11-luc cells
In short: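 KMS11 myeloma cells, 2000 per well in IMDM with 10% FBS, exposed to compound for 3 days at 37° C. Viability read by CellTiter-Glo luminescence; EC50 derived.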

[2] = biological target: Pim 1 (Homo sapiens, UniProt P11309); test: Pim 1 AlphaScreen assay (high ATP)
Protocol: The activity of Pim 1, Pim 2, & Pim 3 is measured using a homogeneous bead based system quantifying the amount of phosphorylated peptide substrate resulting from kinase-catalyzed phosphoryl transfer to a peptide substrate. Compounds to be tested are dissolved in 100% DMSO and directly distributed to a white 384-well plate at 0.25 μl per well. […] This is followed by the addition of 5 μl/well of Pim 1, Pim 2 or Pim 3 kinase in assay buffer (concentrations described below). Final assay concentrations (described below) are in 2.5% DMSO. The reactions are performed for ˜2 hours, then stopped by the addition of 10 μl of 0.75 μg/ml anti-phospho Ser/Thr antibody (Cell Signaling), 10 μg/ml Protein A AlphaScreen beads (Perkin Elmer), and 10 μg/ml streptavidin coated AlphaScreen beads in stop/detection buffer (50 mM EDTA, 95 mM Tris, pH=7.5, 0.01% Tween-20). The stopped reactions are incubated overnight in the dark. The phosphorylated peptide is detected via an oxygen anion initiated chemiluminescence/fluorescence cascade using the Envision plate reader (Perkin Elmer).

[3] = biological target: Pim 2 (Homo sapiens, UniProt Q9P1W9); test: Pim 2 AlphaScreen assay (high ATP)
Pim 2, sequence (Q9P1W9 whole entry): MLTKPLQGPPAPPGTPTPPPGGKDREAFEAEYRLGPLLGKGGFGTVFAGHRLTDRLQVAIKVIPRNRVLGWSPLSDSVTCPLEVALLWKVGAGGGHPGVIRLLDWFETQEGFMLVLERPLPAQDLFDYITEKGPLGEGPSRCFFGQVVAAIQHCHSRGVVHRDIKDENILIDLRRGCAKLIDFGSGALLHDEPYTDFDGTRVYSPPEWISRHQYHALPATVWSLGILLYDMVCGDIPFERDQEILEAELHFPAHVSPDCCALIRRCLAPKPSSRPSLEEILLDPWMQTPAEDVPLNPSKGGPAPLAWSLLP

[4] = biological target: Pim 3 (Homo sapiens, UniProt Q86V86); test: Pim 3 AlphaScreen assay (high ATP)

Pim 1, sequence (P11309 whole entry): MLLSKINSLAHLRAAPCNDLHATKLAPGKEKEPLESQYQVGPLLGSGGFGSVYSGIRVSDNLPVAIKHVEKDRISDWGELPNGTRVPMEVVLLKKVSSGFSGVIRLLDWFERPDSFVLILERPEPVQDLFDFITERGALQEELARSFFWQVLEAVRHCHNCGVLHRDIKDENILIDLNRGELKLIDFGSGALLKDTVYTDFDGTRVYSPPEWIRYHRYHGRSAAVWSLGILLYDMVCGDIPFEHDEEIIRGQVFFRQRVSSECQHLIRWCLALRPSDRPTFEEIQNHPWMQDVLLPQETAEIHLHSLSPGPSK

SMILES	EC50 [1]	IC50 [2]	IC50 [3]	IC50 [4]
C[C@H]1CN(c2ccncc2NC(=O)c2ccc(F)c(-c3c(F)cc(CCO)cc3F)n2)C[C@@H](N)[C@@H]1O [Example 35, N-(4-((3R,4R,5S)-3-amino-4-hydroxy-5-methylpiperidin-1-yl)pyridin-3-yl)-6-(2,6-difluoro-4-(2-hydroxyethyl)phenyl)-5-fluoropicolinamide]	7 nM	0.03 nM	1.09 nM	0.36 nM
C[C@H]1C[C@@H](c2ccncc2NC(=O)c2ccc(F)c(-c3c(F)cc(OC4CCOC4)cc3F)n2)C[C@@H](N)[C@@H]1O (stereo in doubt) [Example 69, N-(4-((1R,3R,4R,5S)-3-amino-4-hydroxy-5-methylcyclohexyl)pyridin-3-yl)-6-(2,6-difluoro-4-((R)-tetrahydrofuran-3-yloxy)phenyl)-5-fluoropicolinamide]	60 nM	0.03 nM	2.38 nM	0.89 nM
CCC(=O)c1cc(F)c(-c2nc(C(=O)Nc3cnccc3N3C[C@@H](N)[C@H](O)[C@@H](C)C3)ccc2F)c(F)c1 [Example 104, N-(4-((3R,4R,5S)-3-amino-4-hydroxy-5-methylpiperidin-1-yl)pyridin-3-yl)-6-(2,6-difluoro-4-propionylphenyl)-5-fluoropicolinamide]	19 nM	0.02 nM	0.95 nM	0.45 nM
C[C@H]1C[C@@H](c2ccncc2NC(=O)c2ccc(F)c(-c3c(F)cc(O[C@@H]4CCCOC4)cc3F)n2)C[C@@H](N)[C@@H]1O [Example 78, N-(4-((1R,3R,4R,5S)-3-amino-4-hydroxy-5-methylcyclohexyl)pyridin-3-yl)-6-(2,6-difluoro-4-((R)-tetrahydro-2H-pyran-3-yloxy)phenyl)-5-fluoropicolinamide]	22 nM	0.02 nM	1.23 nM	0.56 nM
C[C@H]1CN(c2ccncc2NC(=O)c2ccc(F)c(-c3c(F)cc(C4(O)CCC4)cc3F)n2)C[C@@H](N)[C@@H]1O [Example 76, N-(4-((3R,4R,5S)-3-amino-4-hydroxy-5-methylpiperidin-1-yl)pyridin-3-yl)-6-(2,6-difluoro-4-(1-hydroxycyclobutyl)phenyl)-5-fluoropicolinamide]	9 nM	0.01 nM	0.71 nM	0.22 nM
COCc1cc(F)c(-c2nc(C(=O)Nc3cnccc3N3C[C@@H](N)[C@H](O)[C@@H](C)C3)ccc2F)c(F)c1 [Example 38, N-(4-((3R,4R,5S)-3-amino-4-hydroxy-5-methylpiperidin-1-yl)pyridin-3-yl)-6-(2,6-difluoro-4-(methoxymethyl)phenyl)-5-fluoropicolinamide]	10 nM	0.03 nM	1.35 nM	0.47 nM
COCc1cc(F)c(-c2nc(C(=O)Nc3cnccc3[C@H]3C[C@@H](N)[C@H](O)[C@@H](C)C3)ccc2F)c(F)c1 [Example 40, N-(4-((1R,3R,4R,5S)-3-amino-4-hydroxy-5-methylcyclohexyl)pyridin-3-yl)-6-(2,6-difluoro-4-(methoxymethyl)phenyl)-5-fluoropicolinamide]	68 nM	0.08 nM	3.98 nM	2.63 nM
C[C@@H]1C[C@H](N)C[C@H](c2ccncc2NC(=O)c2ccc(F)c(-c3c(F)cc(COC4CCOCC4)cc3F)n2)C1 [Example 149, N-(4-((1R,3S,5S)-3-amino-5-methylcyclohexyl)pyridin-3-yl)-6-(2,6-difluoro-4-((tetrahydro-2H-pyran-4-yloxy)methyl)phenyl)-5-fluoropicolinamide]	148 nM	0.03 nM	2.96 nM	1.72 nM
COCCOc1ccc(F)c(-c2nc(C(=O)Nc3cnccc3[C@@H]3C[C@H](C)C[C@H](N)C3)ccc2F)c1F [Example 13, N-(4-((1R,3S,5S)-3-amino-5-methylcyclohexyl)pyridin-3-yl)-6-(2,6-difluoro-3-(2-methoxyethoxy)phenyl)-5-fluoropicolinamide]	187 nM	0.04 nM	9.36 nM	1.27 nM
C[C@H]1C[C@@H](c2ccncc2NC(=O)c2nc(-c3c(F)cc(C(C)(C)O)cc3F)c(F)cc2N)C[C@@H](N)[C@@H]1O [Example 101, 3-amino-N-(4-((1R,3R,4R,5S)-3-amino-4-hydroxy-5-methylcyclohexyl)pyridin-3-yl)-6-(2,6-difluoro-4-(2-hydroxypropan-2-yl)phenyl)-5-fluoropicolinamide]	30 nM	0.02 nM	1.3 nM	0.36 nM
C[C@@H]1C[C@H](N)C[C@H](c2ccncc2NC(=O)c2cccc(-c3c(F)cc(C4(F)CCOCC4)cc3F)n2)C1 [Example 190, N-(4-((1R,3S,5S)-3-amino-5-methylcyclohexyl)pyridin-3-yl)-6-(2,6-difluoro-4-(4-fluorotetrahydro-2H-pyran-4-yl)phenyl)picolinamide]	402 nM	0.05 nM	3.26 nM	2.9 nM
CCOCCOc1cc(F)c(-c2nc(C(=O)Nc3cnccc3[C@H]3C[C@@H](N)[C@H](O)[C@@H](C)C3)ccc2F)c(F)c1 [Example 141, N-(4-((1R,3R,4R,5S)-3-amino-4-hydroxy-5-methylcyclohexyl)pyridin-3-yl)-6-(4-(2-ethoxyethoxy)-2,6-difluorophenyl)-5-fluoropicolinamide]	2510 nM	0.45 nM	37.4 nM	16 nM
C[C@H]1C[C@@H](c2ccncc2NC(=O)c2ccc(F)c(-c3c(F)cc(OCC4CCOCC4)cc3F)n2)C[C@@H](N)[C@@H]1O [Example 178, N-(4-((1R,3R,4R,5S)-3-amino-4-hydroxy-5-methylcyclohexyl)pyridin-3-yl)-6-(2,6-difluoro-4-((tetrahydro-2H-pyran-4-yl)methoxy)phenyl)-5-fluoropicolinamide]	395 nM	0.03 nM	1.42 nM	0.84 nM
C[C@H]1CN(c2ccncc2NC(=O)c2ccc(F)c(-c3c(F)cc(C4(O)COC4)cc3F)n2)C[C@@H](N)[C@@H]1O [Example 89, N-(4-((3R,4R,5S)-3-amino-4-hydroxy-5-methylpiperidin-1-yl)pyridin-3-yl)-6-(2,6-difluoro-4-(3-hydroxyoxetan-3-yl)phenyl)-5-fluoropicolinamide]	21 nM	0.01 nM	0.67 nM	0.26 nM

Other lines, results leading:

EC50 [1]	IC50 [2]	IC50 [3]	IC50 [4]	SMILES
47 nM	0.02 nM	1 nM	0.52 nM	C[C@@H]1C[C@H](N)C[C@H](c2ccncc2NC(=O)c2ccc(F)c(-c3c(F)cc(C4(O)CCC4)cc3F)n2)C1 [Example 61, N-(4-((1R,3S,5S)-3-amino-5-methylcyclohexyl)pyridin-3-yl)-6-(2,6-difluoro-4-(1-hydroxycyclobutyl)phenyl)-5-fluoropicolinamide]
> 10000 nM	0.45 nM	4.75 nM	20.9 nM	C[C@@H]1C[C@H](N)C[C@H](c2ccncc2NC(=O)c2ccc(F)c(-c3c(F)cc(C(C)(C)C(=O)O)cc3F)n2)C1 [Example 181, 2-(4-(6-(4-((1R,3S,5S)-3-amino-5-methylcyclohexyl)pyridin-3-ylcarbamoyl)-3-fluoropyridin-2-yl)-3,5-difluorophenyl)-2-methylpropanoic acid]
84 nM	0.02 nM	2.77 nM	0.85 nM	COC(C)(C)COc1cc(F)c(-c2nc(C(=O)Nc3cnccc3[C@@H]3C[C@H](C)C[C@H](N)C3)ccc2F)c(F)c1 [Example 46, N-(4-((1R,3S,5S)-3-amino-5-methylcyclohexyl)pyridin-3-yl)-6-(2,6-difluoro-4-(2-methoxy-2-methylpropoxy)phenyl)-5-fluoropicolinamide]
77 nM	0.01 nM	0.51 nM	0.3 nM	C[C@@H]1C[C@H](N)C[C@H](c2ccncc2NC(=O)c2ccc(F)c(-c3c(F)cc4c(c3F)OCC4)n2)C1 [Example 179, N-(4-((1R,3S,5S)-3-amino-5-methylcyclohexyl)pyridin-3-yl)-6-(5,7-difluoro-2,3-dihydrobenzofuran-6-yl)-5-fluoropicolinamide]
1640 nM	0.12 nM	28.4 nM	17.8 nM	C[C@@H]1C[C@H](N)C[C@H](c2ccncc2NC(=O)c2ccc(F)c(-c3c(F)cc(-c4ccnnc4)cc3F)n2)C1 [Example 142, N-(4-((1R,3S,5S)-3-amino-5-methylcyclohexyl)pyridin-3-yl)-6-(2,6-difluoro-4-(pyridazin-4-yl)phenyl)-5-fluoropicolinamide]
64 nM	0.04 nM	2.33 nM	1.08 nM	C[C@@H]1C[C@H](N)C[C@H](c2ccncc2NC(=O)c2ccc(F)c(-c3c(F)ccc(OCCO)c3F)n2)C1 [Example 29, N-(4-((1R,3S,5S)-3-amino-5-methylcyclohexyl)pyridin-3-yl)-6-(2,6-difluoro-3-(2-hydroxyethoxy)phenyl)-5-fluoropicolinamide]
14 nM	0.01 nM	0.42 nM	0.21 nM	CCOCc1cc(F)c(-c2nc(C(=O)Nc3cnccc3[C@@H]3C[C@H](C)C[C@H](N)C3)ccc2F)c(F)c1 [Example 81, N-(4-((1R,3S,5S)-3-amino-5-methylcyclohexyl)pyridin-3-yl)-6-(4-(ethoxymethyl)-2,6-difluorophenyl)-5-fluoropicolinamide]
18 nM	0.01 nM	2.03 nM	0.77 nM	C[C@@H]1C[C@H](N)C[C@H](c2ccncc2NC(=O)c2ccc(F)c(-c3c(F)cc(C4(O)CC4)cc3F)n2)C1 [Example 44, N-(4-((1R,3S,5S)-3-amino-5-methylcyclohexyl)pyridin-3-yl)-6-(2,6-difluoro-4-(1-hydroxycyclopropyl)phenyl)-5-fluoropicolinamide]

Source: patent US20120225062A1 (priority 2011, published 2012)
